# Values joined by “and” are separate entries in the source; they are usually repeats but may differ in a detail not shown here. Equal entries are not always repeated.
# Key:
# [1] = test system: apoptosis of gastric mucosa; assay: TUNEL assay of gastric tissue sections; type: in vivo; settings: indomethacin ulcerated mice
# Excerpt: To understand the fine information about the physical condition (the level of damage and/or intactness) of cells tissues under observation, different tissue samples were fixed in 10% formalin and embedded in paraffin. Tissue sections were deparaffinized with xylene and rehydrated with descending alcohol series. The sections were cut using microtome, and stained with hematoxylin and eosin, or subjected to Terminal deoxynucleotidyl transferase-mediated dUTP Nick End Labeling (TUNEL) assay by using a in situ apoptosis detection kit. Fixation, permeabilization, and staining were carried out in exact parallel to ensure comparative significance among normal, ulcerated and compound 5 treated groups. […] Images at 10× and 40× magnification were captured using Camedia software (E-20P 5.0 Megapixel) and processed under Adobe Photoshop version 7.0 (FIG. 1B).
# Tissue sections were stained with hematoxylin and eosin stain. Fixation, permeabilization, and staining were carried out in parallel in normal, ulcerated and compound 5 treated groups to ensure comparative significance among different treatment. TUNEL assay is used for detection and quantification of apoptosis in gastric tissues, based on labelling of DNA strand breaks. Terminal deoxynucleotidyl transferase-mediated dUTP Nick End Labeling (TUNEL) assay was performed by using an in situ apoptosis detection kit. […]
# [2] = target: T1, purified MMP-9 (Homo sapiens, UniProt P14780); assay: IC50 on purified MMP-9 using gelatin zymography; type: biochemical, human (IPF patients); settings: purified MMP-9, gelatin zymography, three independent experiments
# T1 construct: from tissue; host or cells: bronchoalveolar lavage fluid of IPF patients
# Protocol: MMP-9 was purified from the bronchoalveolar lavage fluid (BALF) of idiopathic pulmonary fibrosis (IPF) patients as these fluids contain enormous amounts of MMP-9. All purification procedures were carried out at 4° C. Briefly, BALF containing protease inhibitor cocktail (EDTA Free) were centrifuged at 12,000 g for 15 min, and the supernatant was collected and processed for protein purification. […] The enzyme was eluted with 7% dimethyl sulfoxide diluted in the same buffer, and the fractions containing enzyme protein as determined by absorbance at 280 nm were pooled and immediately dialyzed against equilibrating buffer at 4° C. They were then concentrated using Amicon Ultra-15 centrifugal filter devices and protein concentration was determined by Bradford assay. These samples were screened to confirm the presence of MMP-9 and absence of MMP-2 by gelatin zymography and stored at −70° C.
# The inventors address the IC50 value of compound 5 towards MMP-9 binding. To evaluate the IC50 value of compound 5 on MMP-9 activity, equal amount of purified MMP-9 was incubated with various concentrations of compound 5 followed by electrophoresis in 8% SDS-PAGE containing 1 mg/mL gelatin under nonreducing conditions.
# [3] = test system: Myeloperoxidase (MPO); assay: Myeloperoxidase assay in gastric tissue; type: in vivo; settings: ulcerated mice, gastric tissue homogenate
# Protocol: To understand the anti-inflammatory activity of compound 5, the inventors performed Myeloperoxidase (MPO) Assay in mouse of control, diseased and treated. Myeloperoxidase (MPO) activity in the mice gastric tissues was measured by calorimetric assay using guaiacol as the substrate. Briefly, gastric tissue homogenate prepared in 5 mM phosphate buffer was added to 1 mL of reaction buffer containing 0.5 mM H2O2 and 0.4 M guaiacol in 50 mM phosphate buffer, pH 7.4. The changes in the optical density per minute for tetraguaiacol were measured at 470 nm in a Shimadzu spectrophotometer. The results were expressed in units/gram gastric tissue (ε=26.6/mM/cm).
# Myeloperoxidase (MPO) activity in the mouse gastric tissue homogenate was assayed colorimetrically using guaiacol and H2O2.
# [4] = test system: protein carbonyl; assay: Measurement of protein carbonyl in gastric tissue homogenate; type: in vivo; settings: 50 mg/kg bw, ulcerated mice
# Protocol: Protein carbonyl groups are considered as biomarkers of oxidative stress. Protein oxidation was measured as carbonyl content in the low speed supernatant of the gastric tissue homogenate. The stomach from control, stress ulcerated, and compound 5 treated (50 mg/kg bw) mice were homogenized in 50 mM sodium phosphate buffer pH 7.4 in a Potter-Elvehjem glass homogenizer for 2 min to get 20% homogenate. After centrifugation at 600 g for 10 min, the proteins from 1.0 mL of the supernatant were precipitated with 10% trichloroacetic acid and allowed to react with 0.5 mL of 10 mM 2,4-dinitrophenyl hydrazine for 1 h. After precipitation with 20% trichloroacetic acid, proteins were washed thrice with a mixture of ethanol-ethyl acetate (1:1), dissolved in 1.0 mL of a solution containing 6 M guanidine HCl in 20 mM potassium phosphate adjusted to pH 2.3 with trifluroacetic acid, and centrifuged. The absorbance of the supernatant was read at 362 nm for carbonyl content (E=22,000/M/cm).
# The fundic stomach homogenate was used for measurement of protein carbonyl formation as nmol/mg protein.
# T1 sequence (P14780 94-707): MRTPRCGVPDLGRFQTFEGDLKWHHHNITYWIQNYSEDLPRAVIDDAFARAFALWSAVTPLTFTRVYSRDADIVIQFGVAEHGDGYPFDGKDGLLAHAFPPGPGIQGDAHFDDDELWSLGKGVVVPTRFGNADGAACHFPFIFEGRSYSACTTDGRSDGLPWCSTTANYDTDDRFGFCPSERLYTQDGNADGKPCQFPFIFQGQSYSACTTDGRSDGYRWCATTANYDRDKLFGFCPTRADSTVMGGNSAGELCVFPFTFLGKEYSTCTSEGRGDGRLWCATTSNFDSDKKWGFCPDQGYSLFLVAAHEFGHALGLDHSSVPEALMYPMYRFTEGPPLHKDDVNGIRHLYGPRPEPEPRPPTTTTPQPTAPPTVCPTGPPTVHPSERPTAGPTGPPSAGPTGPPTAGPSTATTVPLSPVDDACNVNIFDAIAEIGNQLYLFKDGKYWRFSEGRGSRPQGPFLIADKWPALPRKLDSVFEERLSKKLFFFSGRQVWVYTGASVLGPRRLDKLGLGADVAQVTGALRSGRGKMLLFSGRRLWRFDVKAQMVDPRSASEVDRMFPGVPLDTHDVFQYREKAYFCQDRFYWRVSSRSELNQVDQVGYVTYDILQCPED
smiles,measurement,setting,value
"COc1cccc2[nH]cc(-c3cc(-c4ccccc4)oc3-c3ccccc3)c12 [compound 5, 4-methoxy-3-(2,5-diphenylfuran-3-yl)-1H-indole]",apoptosis of gastric mucosa (TUNEL),[1],suppression of apoptosis
same,IC50,[2],~50 µM and 50 µM
same,Myeloperoxidase,[3],9.13±0.33 units/gram tissue
same,Myeloperoxidase,[3]; listed as Compound 5,9.13 ± 0.33 units/gram tissue
same,Protein carbonylation,[4],1.58±0.18 nmol/mg protein
same,Protein carbonylation,[4]; listed as Compound 5,1.58 ± 0.18 nmol/mg protein

# From patent publication US10590116B2, “3-indolyl furanoids as inhibitors of matrix metalloproteinase-9 for prevention of gastric ulcer and other inflammatory diseases” (Council of Scientific & Industrial Research, priority 2017, dated 2020)
